According to patent US20240109881A1, “Heteroaryl Compounds as Ligand Directed Degraders of IRAK4” (Bristol-Myers Squibb Company, priority 2022, published 2024):

Biological target: T1, IRAK4 (Homo sapiens, UniProt Q9NWZ3)
T1 construct: endogenous in cells; host or cells: THP-1 cells
T1 sequence (Q9NWZ3 1-460): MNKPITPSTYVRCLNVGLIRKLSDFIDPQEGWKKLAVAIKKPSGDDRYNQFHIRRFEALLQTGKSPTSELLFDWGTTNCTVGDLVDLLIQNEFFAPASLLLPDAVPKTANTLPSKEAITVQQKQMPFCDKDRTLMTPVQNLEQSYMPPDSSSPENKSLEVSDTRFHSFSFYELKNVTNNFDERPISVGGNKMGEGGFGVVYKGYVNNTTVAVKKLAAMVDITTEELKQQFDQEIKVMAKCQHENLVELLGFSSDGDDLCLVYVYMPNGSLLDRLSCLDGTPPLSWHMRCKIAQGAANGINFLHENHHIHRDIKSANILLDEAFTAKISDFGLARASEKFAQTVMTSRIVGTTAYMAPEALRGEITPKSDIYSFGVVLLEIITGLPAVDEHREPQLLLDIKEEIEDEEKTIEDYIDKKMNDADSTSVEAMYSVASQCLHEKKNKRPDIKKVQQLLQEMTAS
Assay: LVL THP1 HTRF (THP1 Homogeneous Time Resolved Fluorescence)
Type: cell-based
Details: THP1 cells, 18 h incubation with compound; for DC50: read-out: LVL THP1 HTRF EC50
In short: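 IRAK4 HTRF read-out (665/615 nm ratio, anti-IRAK4 d2 acceptor and K donor, 18 h dark incubation at room temperature) on lysates of THP-1 cells. Cells were treated 18 h at 37° C. with 20 nL compound in DMSO, in colorless RPMI with 10% FBS, with a duplicate CTG plate.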

Row | Structure (SMILES) | DC50 [nM] | LVL THP1 HTRF YMIN [%]
1 | C[C@H](C#N)Nc1cc(-n2ncc3cc(C#N)cnc32)ncc1-c1ncn(C2CCC(CCN3CCN(c4ccc(C5CCC(=O)NC5=O)cc4)CC3)CC2)n1 (stereo partly drawn) [P-224] | – | 15.9
2 | C[C@H](C#N)Nc1cc(-n2ncc3cc(C#N)cnc32)ncc1-c1ncn([C@H]2CC[C@H](CCN3CCN(c4ccc(C5CCC(=O)NC5=O)cc4)CC3)CC2)n1 (stereo partly drawn) [P-224] | 60 | –
3 | C[C@H](C#N)Nc1cc(-n2ncc3cncnc32)ncc1-n1cc(C2CCC(CCN3CCN(c4ccc([C@@]5(C)CCC(=O)NC5=O)cc4)CC3)CC2)nn1 (stereo partly drawn) [P-225] | – | 3.5
4 | C[C@H](C#N)Nc1cc(-n2ncc3cncnc32)ncc1-n1cc([C@H]2CC[C@H](CCN3CCN(c4ccc([C@@]5(C)CCC(=O)NC5=O)cc4)CC3)CC2)nn1 [P-225] | 133 | –
5 | C[C@H](C#N)Nc1cc(-n2ncc3cnc(N)nc32)ncc1-n1cc(C2CCC(CCN3CCN(c4ccc([C@@]5(C)CCC(=O)NC5=O)cc4)CC3)CC2)nn1 (stereo partly drawn) [P-228] | – | 3.6
6 | C[C@H](C#N)Nc1cc(-c2ccc3cc(C#N)cnn23)ncc1-n1cc(C2CCC(CCN3CCN(c4ccc([C@@]5(C)CCC(=O)NC5=O)cc4)CC3)CC2)nn1 (stereo partly drawn) [P-230] | – | 2.8
7 | C[C@H](C#N)Nc1cc(-n2ncc3cnc(N)nc32)ncc1-n1cc(C2CCC(CCN3CCN(c4ccc(C5CCC(=O)NC5=O)cc4)CC3)CC2)nn1 (stereo partly drawn) [P-231] | – | 1.37
8 | C[C@H]1CN(c2ccc([C@@]3(C)CCC(=O)NC3=O)cc2)C[C@H](C)N1CCC1CCC(c2cn(-c3cnc(-n4ncc5cc(C#N)cnc54)cc3NC3(C#N)CC3)nn2)CC1 (stereo partly drawn) [P-232] | 65 | 7.1
9 | C[C@H](C#N)Nc1cc(-n2ncc3cc(C#N)cnc32)ncc1-n1cc(C2CCC(CCN3CCC(c4ccc([C@@]5(C)CCC(=O)NC5=O)cc4)CC3)CC2)nn1 (stereo partly drawn) [P-233] | – | 2.8
10 | C[C@]1(c2ccc(N3CCN(CCC4CCC(c5cn(-c6cnc(-n7ncc8cc(C#N)cnc87)cc6NC6(C#N)CC6)nn5)CC4)CC3)cc2)CCC(=O)NC1=O (stereo partly drawn) [P-234] | – | 3.1
11 | C[C@]1(c2ccc(N3CCN(CC[C@H]4CC[C@H](c5cn(-c6cnc(-n7ncc8cc(C#N)cnc87)cc6NC6(C#N)CC6)nn5)CC4)CC3)cc2)CCC(=O)NC1=O [P-234] | 13 | –
12 | C[C@H](C#N)Nc1cc(-n2ncc3cc(C#N)cnc32)ncc1-n1cc(C2CCC(CCN3C[C@@H](C)N(c4ccc([C@@]5(C)CCC(=O)NC5=O)cc4)C[C@@H]3C)CC2)nn1 (stereo partly drawn) [P-236] | 269 | 23.3
13 | C[C@H](C#N)Nc1cc(-n2ncc3cc(C#N)cnc32)ncc1-n1cc(C2CCC(CCN3[C@@H](C)CN(c4ccc([C@@]5(C)CCC(=O)NC5=O)cc4)C[C@@H]3C)CC2)nn1 (stereo partly drawn) [P-238] | 25 | 1.1
14 | C[C@H](C#N)Nc1cc(-n2ncc3cc(C#N)cnc32)ncc1-n1cc(C2CCC(CCN3CCN(c4ccc([C@@]5(C)CCC(=O)NC5=O)cc4)[C@H](C)C3)CC2)nn1 (stereo partly drawn) [P-239] | 165 | 8.6
15 | C[C@@H]1CN(CCC2CCC(c3cn(-c4cnc(-n5ncc6cc(C#N)cnc65)cc4NC4(C#N)CC4)nn3)CC2)[C@@H](C)CN1c1ccc([C@@]2(C)CCC(=O)NC2=O)cc1 (stereo partly drawn) [P-240] | 297 | 14.5
16 | C[C@H](C#N)Nc1cc(-n2ncc3cc(C#N)cnc32)ncc1-n1cc(C2CCC(CCN3CCN(c4ccc([C@@]5(C)CCC(=O)NC5=O)cc4)[C@@H](C)C3)CC2)nn1 (stereo partly drawn) [P-241] | 39 | 3.5
17 | C[C@H](C#N)Nc1cc(-n2ncc3cc(C#N)c(N)nc32)ncc1-n1cc(C2CCC(CCN3[C@H](C)CN(c4ccc([C@@]5(C)CCC(=O)NC5=O)cc4)C[C@H]3C)CC2)nn1 (stereo partly drawn) [P-242] | 23 | 2.5
18 | C[C@H](C#N)Nc1cc(-n2ncc3cc(C#N)cnc32)ncc1-n1cc(C2CCC(CCN3[C@H](C)CN(c4ccc([C@@]5(C)CCC(=O)NC5=O)cc4)C[C@H]3C)CC2)nn1 (stereo partly drawn) [P-243] | 159 | 3.9
19 | C[C@H](C#N)Nc1cc(-n2ncc3cc(C#N)cnc32)ncc1-n1cc(C2CCC(CCN3C[C@H](C)N(c4ccc([C@@]5(C)CCC(=O)NC5=O)cc4)C[C@H]3C)CC2)nn1 (stereo partly drawn) [P-244] | 56 | 3.5
20 | C[C@H](C#N)Nc1cc(-n2ncc3cc(C#N)c(N)nc32)ncc1-n1cc(C2CCC(CCN3CCN(c4ccc([C@@]5(C)CCC(=O)NC5=O)cc4)[C@@H](C)C3)CC2)nn1 (stereo partly drawn) [P-245] | 12 | 2.6
21 | C[C@H](C#N)Nc1cc(-n2ncc3ccc(N4C[C@H]5C[C@@H]4CO5)nc32)ncc1-n1cc([C@H]2CC[C@H](CCN3CCN(c4ccc([C@@]5(C)CCC(=O)NC5=O)cc4)CC3)CC2)nn1 [P-247] | 191 | 13.4
22 | C[C@H](C#N)Nc1cc(-n2ncc3cc(C#N)cnc32)ncc1C(=O)N[C@H]1CC[C@H](CCN2CC[C@@H](c3ccc([C@@]4(C)CCC(=O)NC4=O)cc3)C[C@@H]2C)CC1 [P-271] | 18.8 | 9.9

Continued, values first:

Row | DC50 [nM] | LVL THP1 HTRF YMIN [%] | Structure (SMILES)
23 | 7 | – | C[C@H](C#N)Nc1cc(-n2ncc3cc(C#N)c(N)nc32)ncc1-n1cc([C@H]2CC[C@H](CCN3CCN(c4ccc([C@@]5(C)CCC(=O)NC5=O)cc4)CC3)CC2)nn1 [P-222]
24 | < 1 | 2.1 | C[C@H](C#N)Nc1cc(-n2ncc3cc(C#N)c(N)nc32)ncc1-n1cc(C2CCC(CCN3[C@@H](C)CN(c4ccc(C5CCC(=O)NC5=O)cc4)C[C@@H]3C)CC2)nn1 (stereo partly drawn) [P-223]
25 | 5 | 2.1 | C[C@H](C#N)Nc1cc(-n2ncc3cc(C#N)cnc32)ncc1-n1cc([C@H]2CC[C@](O)(CCN3CCN(c4ccc(C5CCC(=O)NC5=O)cc4)CC3)CC2)nn1 (stereo partly drawn) [P-226, 1-(4-(((R)-1-cyanoethyl)amino)-5-(4-(4-(2-(4-(4-(2,6-dioxopiperidin-3-yl)phenyl)piperazin-1-yl)ethyl)-4-hydroxycyclohexyl)-1H-1,2,3-triazol-1-yl)pyridin-2-yl)-1H-pyrazolo[3,4-b]pyridine-5-carbonitrile]
26 | 2 | 3.0 | C[C@H](C#N)Nc1cc(-n2ncc3cc(C#N)cnc32)ncc1-n1cc(C2CCC(O)(CCN3CCN(c4ccc(C5CCC(=O)NC5=O)cc4)CC3)CC2)nn1 (stereo partly drawn) [P-227]
27 | 9 | – | C[C@H](C#N)Nc1cc(-n2ncc3cnc(N)nc32)ncc1-n1cc([C@H]2CC[C@H](CCN3CCN(c4ccc([C@@]5(C)CCC(=O)NC5=O)cc4)CC3)CC2)nn1 [P-228]
28 | 7 | – | C[C@H](C#N)Nc1cc(-c2ccc3cc(C#N)cnn23)ncc1-n1cc([C@H]2CC[C@H](CCN3CCN(c4ccc([C@@]5(C)CCC(=O)NC5=O)cc4)CC3)CC2)nn1 [P-230]
29 | 1 | – | C[C@H](C#N)Nc1cc(-n2ncc3cnc(N)nc32)ncc1-n1cc([C@H]2CC[C@H](CCN3CCN(c4ccc(C5CCC(=O)NC5=O)cc4)CC3)CC2)nn1 (stereo partly drawn) [P-231]
30 | 8 | – | C[C@H](C#N)Nc1cc(-n2ncc3cc(C#N)cnc32)ncc1-n1cc([C@H]2CC[C@H](CCN3CCC(c4ccc([C@@]5(C)CCC(=O)NC5=O)cc4)CC3)CC2)nn1 [P-233]
31 | 6.8 | 4.1 | C[C@]1(c2ccc(N3CCN(CC[C@H]4CC[C@H](c5cn(-c6cnc(-n7ncc8cc(C#N)c(N)nc87)cc6NC6(C#N)CC6)nn5)CC4)CC3)cc2)CCC(=O)NC1=O [P-246]
32 | 4 | 4.1 | C[C@H](C#N)Nc1cc(-n2ncc3cc(C#N)c(N)nc32)ncc1C(=O)N[C@H]1CC[C@H](CCN2CCN(c3ccc([C@@]4(C)CCC(=O)NC4=O)cc3)[C@@H](C)C2)CC1 [P-248]
33 | 1.2 | 2.4 | C[C@H](C#N)Nc1cc(-n2ncc3cc(C#N)c(N)nc32)ncc1C(=O)N[C@H]1CC[C@H](CCN2CCN(c3ccc([C@@]4(C)CCC(=O)NC4=O)cc3)CC2)CC1 [P-250]
34 | 9.8 | 1.9 | C[C@H](C#N)Nc1cc(-n2ncc3cc(C#N)c(N)nc32)ncc1-n1cc([C@H]2CC[C@H](CCN3[C@@H](C)CN(c4ccc([C@@]5(C)CCC(=O)NC5=O)cc4)C[C@@H]3C)CC2)nn1 [P-251]
35 | 11.8 | 6.3 | C[C@H](C#N)Nc1cc(-n2ncc3cc(C#N)c(N4C[C@H]5C[C@@H]4CO5)nc32)ncc1-n1cc([C@H]2CC[C@H](CCN3CCN(c4ccc([C@@]5(C)CCC(=O)NC5=O)cc4)CC3)CC2)nn1 [P-269]
36 | 6.5 | 0.2 | C[C@H](C#N)Nc1cc(-n2ncc3cc(C#N)cnc32)ncc1C(=O)N[C@H]1CC[C@H](CCN2CC[C@H](c3ccc([C@@]4(C)CCC(=O)NC4=O)cc3)C[C@H]2C)CC1 [P-270]
37 | 10.3 | 10.2 | CC1CN(CC[C@H]2CC[C@H](NC(=O)c3cnc(-n4ncc5cc(C#N)cnc54)cc3N[C@H](C)C#N)CC2)CCC1c1ccc([C@@]2(C)CCC(=O)NC2=O)cc1 (stereo partly drawn) [P-272]
38 | 4.9 | 5.6 | C[C@H](C#N)Nc1cc(-n2ncc3cc(C#N)cnc32)ncc1C(=O)N[C@H]1CC[C@H](CCN2CCC(c3ccc([C@@]4(C)CCC(=O)NC4=O)cc3)CC2)CC1 [P-273]
39 | 5.8 | 3.5 | C[C@H](C#N)Nc1cc(-n2ncc3cc(C#N)cnc32)ncc1C(=O)N[C@H]1CC[C@H](CCN2CCC(F)(c3ccc([C@@]4(C)CCC(=O)NC4=O)cc3)CC2)CC1 [P-274]
